Activity calls are given as the source filed them. The calls are words filed in the database; no cut-off is given here.
Assays:
[1] = system: Mus musculus; test: Antiinflammatory activity in C57Bl/6J mouse assessed as inhibition of carrageenan-induced paw edema at 10 mg/kg, ip treated for 2 days measured 2 hrs post last dose by caliper method relative to control; assay type: functional
[2] = molecular target: C-X-C chemokine receptor type 4 (Homo sapiens) (UniProt P61073); test: Inhibition of biotinylated TN14003 binding to CXCR4 in human MDA-MB-231 cells preincubated for 10 mins followed by biotinylated-TN14003 addition measured after 30 mins by streptavidin-rhodamine staining based fluorescence microscopic analysis; assay type: cell-based
Sequence of C-X-C chemokine receptor type 4 (Homo sapiens) (P61073 whole entry): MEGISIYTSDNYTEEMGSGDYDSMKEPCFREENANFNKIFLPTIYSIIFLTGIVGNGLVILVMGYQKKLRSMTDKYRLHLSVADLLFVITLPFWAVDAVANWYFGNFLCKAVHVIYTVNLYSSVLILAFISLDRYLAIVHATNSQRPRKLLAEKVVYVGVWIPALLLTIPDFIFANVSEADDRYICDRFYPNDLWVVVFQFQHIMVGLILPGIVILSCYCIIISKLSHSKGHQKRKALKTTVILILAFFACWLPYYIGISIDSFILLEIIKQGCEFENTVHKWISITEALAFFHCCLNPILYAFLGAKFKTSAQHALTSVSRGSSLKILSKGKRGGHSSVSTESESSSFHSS

[3] = molecular target: C-X-C chemokine receptor type 4 (Homo sapiens) (UniProt P61073); test: Inhibition of CXCR4-mediated chemotaxis in human MDA-MB-231 cells assessed as reduction in CXCL12alpha-induced cell invasion at 100 nM after 22 hrs by hematoxylin/eosin dye-based matrigel assay relative to control

SMILES | inhibition in vivo at 10 mg/kg [1] | EC [2] | inhibition [3] | inhibition [1]
Fc1cccc(NCc2ccc(CNc3cccc(F)c3)nc2)c1 | 12% | 100 nM | 82.4% | 
c1cc(CN2CCCNCCNCCCNCC2)ccc1CN1CCCNCCNCCCNCC1 |  |  | 62% | inactive
Clc1ccc(NCc2ccc(CNc3ccc(Cl)cc3)nc2)cc1 |  | 1000 nM |  | 
Clc1ccc(CNc2ccc(NCc3ccc(Cl)cc3)nc2)cc1 | 8% | 10 nM | 83.7% | 
Cc1cccc(CNc2ccc(NCc3cccc(C)c3)nc2)c1 |  | 100 nM | 50.4% | 
COc1ccccc1NCc1ccc(CNc2ccccc2OC)nc1 | 11% |  | 84.1% | 
Cc1ccccc1CNc1ccc(NCc2ccccc2C)nc1 | 3% | 100 nM | 82.4% | 
Fc1ccccc1NCc1ccc(CNc2ccccc2F)nc1 |  | 1000 nM |  | 
Fc1ccccc1CNc1ccc(NCc2ccccc2F)nc1 |  | 100 nM | 53.3% | 
c1ccc(CNc2ccc(NCc3ccccc3)nc2)cc1 |  | 1000 nM |  | 
CCc1ccc(NCc2ccc(CNc3ccc(CC)cc3)nc2)cc1 |  | 1000 nM |  | 
COc1ccc(NCc2ccc(CNc3ccc(OC)cc3)nc2)cc1 |  | 1000 nM |  | 
Cc1ccccc1NCc1ccc(CNc2ccccc2C)nc1 |  | 1000 nM |  | 
Fc1ccc(CNc2ccc(NCc3ccc(F)cc3)nc2)cc1 |  | 1000 nM |  | 
O=[N+]([O-])c1ccc(CNc2ccc(NCc3ccc([N+](=O)[O-])cc3)nc2)cc1 |  | 1000 nM |  | 
O=[N+]([O-])c1cccc(CNc2ccc(NCc3cccc([N+](=O)[O-])c3)nc2)c1 |  | 1000 nM |  | 
O=[N+]([O-])c1cccc(NCc2ccc(CNc3cccc([N+](=O)[O-])c3)nc2)c1 |  | 100 nM | 73.4% | 

SMILES | inhibition in vivo at 10 mg/kg [1] | EC [2] | inhibition [3] | inhibition [1]
COc1cccc(CNc2ccc(NCc3cccc(OC)c3)nc2)c1 |  | > 1000 nM |  | 
COc1ccccc1CNc1ccc(NCc2ccccc2OC)nc1 |  | > 1000 nM |  | 
Cc1ccc(NCc2ccc(CNc3ccc(C)cc3)nc2)cc1 |  | 100 nM | 85.1% | inactive
c1ccc(NCc2ccc(CNc3ccccc3)nc2)cc1 |  | 1000 nM |  | 
Cc1cccc(NCc2ccc(CNc3cccc(C)c3)nc2)c1 |  |  | 99% | inactive
Fc1cccc(CNc2ccc(NCc3cccc(F)c3)nc2)c1 |  | 100 nM | 4.8% | 
O=[N+]([O-])c1ccccc1NCc1ccc(CNc2ccccc2[N+](=O)[O-])nc1 |  | 1000 nM |  | 
Fc1ccc(NCc2ccc(CNc3ccc(F)cc3)nc2)cc1 |  | 1000 nM |  | 
Brc1ccc(CNc2ccc(NCc3ccc(Br)cc3)nc2)cc1 |  | 1000 nM |  | 
COc1cccc(NCc2ccc(CNc3cccc(OC)c3)nc2)c1 |  | 100 nM | 76.8% | inactive
O=[N+]([O-])c1ccccc1CNc1ccc(NCc2ccccc2[N+](=O)[O-])nc1 |  | 1000 nM |  | 
Brc1ccc(NCc2ccc(CNc3ccc(Br)cc3)nc2)cc1 |  | 1000 nM |  | 
c1ccc(NCc2ccc(CNc3ccccn3)cc2)nc1 | 40% |  |  | 
O=[N+]([O-])c1ccc(NCc2ccc(CNc3ccc([N+](=O)[O-])cc3)nc2)cc1 | 13% | 1 nM | 80.3% | 
COc1ccccc1NCc1cccc(CNc2ccccc2OC)n1 |  |  | < 1% | 
Cc1ccc(CNc2ccc(NCc3ccc(C)cc3)nc2)cc1 |  | 10 nM | 35.7% | 
CCc1ccc(CNc2ccc(NCc3ccc(CC)cc3)nc2)cc1 |  | > 1000 nM |  | 

Source: ChEMBL document CHEMBL4371032, “Synthesis and evaluation of 2,5-diamino and 2,5-dianilinomethyl pyridine analogues as potential CXCR4 antagonists” (2019)
